Source: patent US4864023A, “Pyrido(3,2,1-IJ)-1,3,4-benzoxadiazine derivatives” (priority 1988, dated 1989)
In brackets after ≈: the same amount, converted by molar mass. Read-outs that look alike come from different tables or passages of the source.

Tests used:
Test in all cases: in vitro antibacterial activity, standard agar dilution method
Format in all cases: cell-based
[1] = test system: Bacillus subtilis PCI 219; details: PCI219, aerobic, read-out: minimum inhibitory concentration (MIC)
[2] = test system: Staphylococcus aureus Smith; details: read-out: minimum inhibitory concentration (MIC)
[3] = test system: Salmonella typhimurium IFO 12529; details: Salmonella enterica, aerobic, read-out: minimum inhibitory concentration (MIC)
[4] = test system: Citrobacter freundii IFO 12681; details: IFO12681, aerobic, read-out: minimum inhibitory concentration (MIC)
[5] = test system: Enterococcus faecalis NR 2943; details: NR2943, aerobic, read-out: minimum inhibitory concentration (MIC)
[6] = test system: Pseudomonas aeruginosa A3; details: aerobic, read-out: minimum inhibitory concentration (MIC)
[7] = test system: Enterobacter cloacae NR 2946; details: NR2946, aerobic, read-out: minimum inhibitory concentration (MIC)
[8] = test system: Bordetella bronchiseptica ATCC 4617; details: ATCC4617, aerobic, read-out: minimum inhibitory concentration (MIC)
[9] = test system: Staphylococcus aureus FDA 209P JC-1; details: FDA209P, read-out: minimum inhibitory concentration (MIC)
[10] = test system: Enterobacter aerogenes NR 2945; details: Klebsiella aerogenes, NR2945, aerobic, read-out: minimum inhibitory concentration (MIC)
[11] = test system: Pseudomonas aeruginosa NR 2950; details: NR2950, aerobic, read-out: minimum inhibitory concentration (MIC)
[12] = test system: Alcaligenes faecalis IFO 13111; details: IFO13111, aerobic, read-out: minimum inhibitory concentration (MIC)
[13] = test system: Serratia marcescens IFO 12648; details: IFO12648, aerobic, read-out: minimum inhibitory concentration (MIC)
[14] = test system: Staphylococcus epidermidis NR 2942; details: NR2942, aerobic, read-out: minimum inhibitory concentration (MIC)
[15] = test system: Escherichia coli NIHJ JC-2; details: NIHJJC2, aerobic, read-out: minimum inhibitory concentration (MIC)
[16] = test system: Proteus rettgeri ATCC 14505; details: Providencia rettgeri, ATCC14505, aerobic, read-out: minimum inhibitory concentration (MIC)
[17] = test system: Staphylococcus aureus NR 2855
[18] = test system: Klebsiella pneumoniae FDA PCI 602; details: FDAPCI602, aerobic, read-out: minimum inhibitory concentration (MIC)
[19] = test system: Proteus vulgaris OX19 ATCC 6898; details: ATCC6898, aerobic, read-out: minimum inhibitory concentration (MIC)
[20] = test system: Staphylococcus epidermidis IFO 12993; details: IFO12993, aerobic, read-out: minimum inhibitory concentration (MIC)
Escherichia coli NR 2630 = details: NR2630; Escherichia coli NR 2630; aerobic; agar dilution; read-out: minimum inhibitory concentration (MIC)
[21] = test system: Pseudomonas stutzeri IFO 12695; details: Stutzerimonas stutzeri, IFO12695, aerobic, read-out: minimum inhibitory concentration (MIC)
[22] = Staphylococcus aureus Smith, aerobic, agar dilution
[23] = Staphylococcus aureus FDA 209P JC-1, aerobic, agar dilution
[24] = NR2855, Staphylococcus aureus NR 2855, aerobic, agar dilution, read-out: minimum inhibitory concentration (MIC)

MIC [2, 22]	Structure (SMILES)	MIC [1]	MIC [3]	MIC [4]	MIC [5]	MIC [6]	MIC [7]	MIC [8]	MIC [10]	MIC [11]	MIC [12]	MIC [13]	MIC [14]	MIC [15]	MIC [16]	MIC [18]	MIC [19]	MIC [20]	MIC (Escherichia coli NR 2630)	MIC [21]	other results
0.0033 µg/mL (≈ 0.00945 µM)	CN1COc2c(N3CCOCC3)c(F)cc3c(=O)c(C(=O)O)cn1c23 [Example 9, 9-Fluoro-3-methyl-10-morpholino-7-oxo-2,3-dihydro-7H-pyrido[3,2,1-ij]-1,3,4-benzoxadiazine-6-carboxylic acid]	≤ 0.0008 µg/mL	0.0033 µg/mL (≈ 0.00945 µM)	0.39 µg/mL (≈ 1.12 µM)	12.5 µg/mL (≈ 35.8 µM)	6.25 µg/mL (≈ 17.9 µM)	0.013 µg/mL (≈ 0.0372 µM)	1.56 µg/mL (≈ 4.47 µM)	0.0065 µg/mL (≈ 0.0186 µM)	12.5 µg/mL (≈ 35.8 µM)	6.25 µg/mL (≈ 17.9 µM)	0.78 µg/mL (≈ 2.23 µM)	0.0065 µg/mL (≈ 0.0186 µM)	0.1 µg/mL (≈ 0.286 µM)	1.56 µg/mL (≈ 4.47 µM)	3.13 µg/mL (≈ 8.96 µM)	≤ 0.0008 µg/mL	0.2 µg/mL (≈ 0.573 µM)	≤ 0.0008 µg/mL	≤ 0.0008 µg/mL	MIC [9, 23]: 0.2 µg/mL (≈ 0.573 µM); MIC [17, 24]: 0.0065 µg/mL (≈ 0.0186 µM)
	CC(=O)CCN1CCN(c2c(F)cc3c(=O)c(C(=O)O)cn4c3c2OCN4C)CC1 [Example 51, 9-fluoro-3-methyl-7-oxo-10-[4-(3-oxo-n-butyl)-1-piperazinyl]-2,3-dihydro-7H-pyrido[3,2,1-ij]-1,3,4-benzoxadiazine-6-carboxylic acid]	0.1 µg/mL (≈ 0.239 µM)	0.025 µg/mL (≈ 0.0597 µM)	0.025 µg/mL (≈ 0.0597 µM)	12.5 µg/mL (≈ 29.9 µM)	0.1 µg/mL (≈ 0.239 µM)	0.05 µg/mL (≈ 0.119 µM)	1.56 µg/mL (≈ 3.73 µM)	0.025 µg/mL (≈ 0.0597 µM)	1.56 µg/mL (≈ 3.73 µM)	3.13 µg/mL (≈ 7.48 µM)	0.1 µg/mL (≈ 0.239 µM)	0.78 µg/mL (≈ 1.86 µM)	0.1 µg/mL (≈ 0.239 µM)	0.2 µg/mL (≈ 0.478 µM)	0.2 µg/mL (≈ 0.478 µM)	0.025 µg/mL (≈ 0.0597 µM)	0.78 µg/mL (≈ 1.86 µM)	0.025 µg/mL (≈ 0.0597 µM)	0.05 µg/mL (≈ 0.119 µM)	MIC ([2]; Staphylococcus aureus): 0.39 µg/mL (≈ 0.932 µM); MIC [9, 23]: 0.2 µg/mL (≈ 0.478 µM); MIC [17, 24]: 1.56 µg/mL (≈ 3.73 µM)
0.39 µg/mL (≈ 0.989 µM)	CN1COc2c(N3CCN(CCF)CC3)c(F)cc3c(=O)c(C(=O)O)cn1c23 [Example 44]	0.05 µg/mL (≈ 0.127 µM)	0.2 µg/mL (≈ 0.507 µM)	0.2 µg/mL (≈ 0.507 µM)	12.5 µg/mL (≈ 31.7 µM)	0.78 µg/mL (≈ 1.98 µM)	0.2 µg/mL (≈ 0.507 µM)	0.39 µg/mL (≈ 0.989 µM)	0.1 µg/mL (≈ 0.254 µM)	6.25 µg/mL (≈ 15.8 µM)	1.56 µg/mL (≈ 3.96 µM)	0.39 µg/mL (≈ 0.989 µM)	0.39 µg/mL (≈ 0.989 µM)	0.2 µg/mL (≈ 0.507 µM)	1.56 µg/mL (≈ 3.96 µM)	0.39 µg/mL (≈ 0.989 µM)	0.1 µg/mL (≈ 0.254 µM)	0.78 µg/mL (≈ 1.98 µM)	0.05 µg/mL (≈ 0.127 µM)	0.2 µg/mL (≈ 0.507 µM)	MIC [9, 23]: 0.78 µg/mL (≈ 1.98 µM); MIC [17, 24]: 0.39 µg/mL (≈ 0.989 µM)

Structure (SMILES)	MIC [2, 22]	MIC [1]	MIC [3]	MIC [4]	MIC [5]	MIC [6]	MIC [7]	MIC [8]	MIC [10]	MIC [11]	MIC [12]	MIC [13]	MIC [14]	MIC [15]	MIC [16]	MIC [18]	MIC [19]	MIC [20]	MIC (Escherichia coli NR 2630)	MIC [21]	other results
CC(=O)NCC1CCN(c2c(F)cc3c(=O)c(C(=O)O)cn4c3c2OCN4C)C1 (stereo not shown) [Example 19, 10-[3-(acetylaminomethyl)-1-pyrrolidinyl]-9-fluoro-3-methyl-7-oxo-2,3-dihydro-7H-pyrido[3,2,1-ij]-1,3,4-benzoxadiazine-6-carboxylic acid]	0.2 µg/mL (≈ 0.495 µM)	0.05 µg/mL (≈ 0.124 µM)	1.56 µg/mL (≈ 3.86 µM)	1.56 µg/mL (≈ 3.86 µM)	6.25 µg/mL (≈ 15.5 µM)	6.25 µg/mL (≈ 15.5 µM)	1.56 µg/mL (≈ 3.86 µM)	6.25 µg/mL (≈ 15.5 µM)	1.56 µg/mL (≈ 3.86 µM)	25 µg/mL (≈ 61.8 µM)	6.25 µg/mL (≈ 15.5 µM)	3.13 µg/mL (≈ 7.74 µM)	0.39 µg/mL (≈ 0.964 µM)	1.56 µg/mL (≈ 3.86 µM)	3.13 µg/mL (≈ 7.74 µM)	6.25 µg/mL (≈ 15.5 µM)	0.39 µg/mL (≈ 0.964 µM)	0.39 µg/mL (≈ 0.964 µM)	0.39 µg/mL (≈ 0.964 µM)	0.39 µg/mL (≈ 0.964 µM)	MIC ([9]; Staphylococcus aureus): 0.39 µg/mL (≈ 0.964 µM); MIC ([17]; Staphylococcus aureus, NR2855, read-out: minimum inhibitory concentration (MIC)): 0.39 µg/mL (≈ 0.964 µM)
